Experimental data as given in patent US20250163387A1, “HUMAN PITUITARY NEUROENDOCRINE TUMOR ORGANOIDS AND METHODS OF MAKING AND USING THE SAME” (ARIZONA BOARD OF REGENTS OF THE UNIVERSITY OF ARIZONA, A …, priority 2022, published 2025).

Legend:
SSTR2 = assay: Differential expression of SSTR2 in iPSC generated pituitary tumor organoids; type: cell-based, human; settings: iPSC organoids (ctrl, USP48MI, USP48MV, USP8); 500 nM; vs vehicle
SSTR5 = assay: Differential expression of SSTR5 in iPSC generated pituitary tumor organoids; type: cell-based, human; settings: iPSC organoids (ctrl, USP48MI, USP48MV, USP8); 500 nM; vs vehicle
iPSC^USP48MV organoids [1] = assay: Proliferation by EdU uptake; type: cell-based, human; settings: drug alone, 500 nM
Description: (§1) Organoids were immunostained using published protocols by our laboratory. Proliferation was measured by using 5-ethynyl-2'-deoxyuridine (EdU) incorporation according to the Manufacturer's protocol (Click-IT EdU Alexa Fluor 555 Imaging Kit, Thermo Fisher Scientific C10338). Costaining was performed by blocking fixed organoids with 2% donkey serum (Jackson Immuno Research, #017-000-121) diluted in 0.01% PBST for 1 hr. at room temperature. Organoids were then incubated overnight at 4° C. with primary antibodies followed by secondary antibodies and Hoechst (Thermo Fisher Scientific H1399, 1:1000 in 0.01% PBST) for 1 hr at room temperature. Human specific primary antibodies used included: rabbit anti-ACTH (Thermo Fisher Scientific 701293, 1:250), rabbit anti-Synaptophysin (Thermo Fisher Scientific PA5-27286, 1:100), […] (Thermo Fisher Scientific PA5-98650, 1:50), rabbit anti-LH (Thermo Fisher Scientific PA5-102674, 1:100), mouse anti-FSH (Thermo Fisher Scientific MIF2709, 1:100), mouse anti-PRL (Thermo Fisher Scientific CF500720, 1:100), Alexa Flour conjugated GH (NB500-364AF647, 1:100) and mouse anti-CAM5.2 (SIGMA […]-95, 1:250). The secondary antibodies used included Alexa Fluor 488 Donkey Anti Rabbit IgG (H+L) (Thermo Fisher Scientific A21206, 1:100) or Alexa Fluor 647 Donkey Anti Mouse IgG (H+L) (Thermo Fisher Scientific A31571, 1:100). Organoids were visualized and images acquired by confocal microscopy using the Nikon CrestV2 Spinning Disk. Fluorescence intensity and percentage of EdU positive cells of total cells, were calculated using Nikon Elements Software (Version 5.21.05).

iPSC^ctrl organoids [2] = assay: Proliferation by EdU uptake; type: cell-based, human; settings: drug alone, 500 nM
Description: as §1

iPSC^USP48MV organoids [3] = assay: Nuclear irregularity index (NII) morphometric analysis; type: cell-based, human; settings: 500 nM
Description: (§2) Nuclear Morphometric Analysis (NMA) using treated organoids was performed based on a published protocol that measures cell viability based on the changes in nuclear morphology of the cells using nuclear stain Hoechst or DAPI [30]. Images of organoid nuclei were analyzed using the ImageJ Nuclear Irregularity Index (NII) plugin for key parameters that included cell area, radius ratio, area box, aspect, and roundness. Using the published spreadsheet template, the NII of each cell was calculated with the following formula: NII=Aspect−Area Box+Radius Ratio+Roundness. The area vs NII of vehicle-treated cells were plotted as a scatter plot using the template and considered as the normal cell nuclei. The same plots were generated for each condition, and the NII and area of treated cells were compared to the normal nuclei, and classified as one of the following NMA populations: Normal (N; similar area and NII), Mitotic (S; similar area, slightly higher NII), Irregular (I; similar area, high NII), Small Regular (SR; apoptotic, low area and NII), Senescent (LR; high area, low NII), Small Irregular (SI; low area, high NII), or Large Irregular (LI; high area, high NII). […] The percentage of cells in each NII classification category were calculated and plotted as a histogram using GraphPad Prism.

iPSC^ctrl organoids [4] = assay: as above; type: cell-based, human; settings: 500 nM
Description: as §2

hPITO37 = assay: Spectral flow cytometry (SSTR2, SSTR5, ACTH, zombie); type: cell-based, human; settings: Rela 382 nM, Mife 2.85 nM
Description: (§3) The multicolor flow cytometry panel was designed using the Cytek®Full Spectrum Viewer online tool to calculate the similarity index. The organoids were harvested in cold SFDM media and centrifuged at 400×g for 5 minutes. Supernatant was discarded and organoids were dissociated to single cells using Accutase® (Thermo Fisher Scientific 00-4555-56). The enzymatic reaction was stopped using prewarmed DPBS and cells were then centrifuged at 400×g for 5 minutes and incubated with fluorochrome-conjugated/unconjugated primary surface or cytoplasmic antibodies at 4° C. for 30 minutes. Cells were then washed with Cell Staining Buffer (BioLegend #420-201) and incubated with secondary antibodies at 4° C. for 30 minutes. Cells were fixed using Cytofix/Cytoperm™ Fixation/Permeabilization Solution (BD Biosciences #554714) at 4° C. for 20 minutes, followed by washing with Fixation/Permeabilization wash buffer. Cells were then labeled with fluorochrome-conjugated/unconjugated intracellular primary antibodies at 4° C. for 30 minutes, washed and incubated with secondary antibodies at 4° C. for 30 minutes. Cells resuspended in cell staining buffer and fluorescence measured using the Cytek Aurora 5 Laser Spectral Flow Cytometer. An unstained cell sample was fixed and used as reference control. UltraComp eBeads™, Compensation Beads (Thermo Fisher Scientific #01-2222-42) were stained with the individual antibodies and used as single stain control for compensation and gating. Data was acquired using the Cytek™ Aurora and analyzed using Cytobank software (Beckman Coulter, Indianapolis, IN).

iPSC^USP48MV organoids [5] = assay: as above; type: cell-based, human; settings: Rela 500 nM, Mife 500 nM
Description: as §3

FKBP5 = assay: GR modulation: GR target gene FKBP5 expression in PitNET organoids; type: cell-based, human
macroadenomas = settings: patients with macroadenomas; relacorilant for three months; cited from earlier work
[6] = system: pancreatic and ovarian cancer cell lines; settings: cited from earlier work

SMILES: Cn1cc(S(=O)(=O)N2CCC3=Cc4c(cnn4-c4ccc(F)cc4)C[C@]3(C(=O)c3cc(C(F)(F)F)ccn3)C2)cn1 [relacorilant]
- expression of SSTR2 (SSTR2): significant induction
- expression of SSTR5 (SSTR5): significant induction
- cell proliferation (EdU uptake) (iPSC^USP48MV organoids [1]): did not induce organoid proliferation
- cell proliferation (EdU uptake) (iPSC^ctrl organoids [2]): did not induce organoid proliferation
- apoptotic cells by nuclear morphology (NII) (iPSC^USP48MV organoids [3]): increased apoptotic cells
- apoptotic cells by nuclear morphology (NII) (iPSC^ctrl organoids [4]): not observed
- cell death (Zombie positive cells) (hPITO37; Pas 837.5 nM): significant increase
- percentage of SSTR2 positive cells (hPITO37; vs Veh): significant increase
- percentage of SSTR5 positive cells (hPITO37; vs Veh): significant increase
- ACTH positive cells (iPSC^USP48MV organoids [5]; Pas 100 nM): did not significantly increase
- cell death (Zombie positive cells) (iPSC^USP48MV organoids [5]; Pas 100 nM): significant increase
- percentage of SSTR2 positive cells (iPSC^USP48MV organoids [5]; vs Veh): significant increase
- percentage of SSTR5 positive cells (iPSC^USP48MV organoids [5]; vs Veh): significant increase
- differential expression of FKBP5 (FKBP5): significantly reduced
- tumor (macroadenoma) regression (macroadenomas): tumor regression in two patients
- apoptosis in vitro [6]: induces apoptosis
